Data: paper PMC10714743, “TrCla4 promotes actin polymerization at the hyphal tip and mycelial growth in Trichophyton rubrum” (Microbiology Spectrum, 2023)

Key:
TrCla4 [1] = molecular target: T1, TrCla4 (Trichophyton rubrum, UniProt F2SMN8); assay: pull-down of purified GTPγS-TrRac by Tf-TrCla4 with IPA-3; also Kinase-Glo assay of immunoprecipitated 3xHA-TrCla4; type: biochemical
T1 construct: gene TERG_04196; His-, Tf- and Flag-tagged TrCla4 (E. coli BL21 lysate, Ni NTA pull-down); also immunoprecipitated 3xHA-TrCla4

TrCla4 [2] = molecular target: T2, TrCla4 (Trichophyton rubrum, UniProt F2SMN8); assay: Kinase-Glo ATP consumption assay of immunoprecipitated 3xHA-TrCla4 with recombinant TrRac; type: biochemical
T2 construct: gene TERG_04196; 3xHA-TrCla4 immunoprecipitated from T. rubrum; with TrRac
T2 sequence (F2SMN8 1-888): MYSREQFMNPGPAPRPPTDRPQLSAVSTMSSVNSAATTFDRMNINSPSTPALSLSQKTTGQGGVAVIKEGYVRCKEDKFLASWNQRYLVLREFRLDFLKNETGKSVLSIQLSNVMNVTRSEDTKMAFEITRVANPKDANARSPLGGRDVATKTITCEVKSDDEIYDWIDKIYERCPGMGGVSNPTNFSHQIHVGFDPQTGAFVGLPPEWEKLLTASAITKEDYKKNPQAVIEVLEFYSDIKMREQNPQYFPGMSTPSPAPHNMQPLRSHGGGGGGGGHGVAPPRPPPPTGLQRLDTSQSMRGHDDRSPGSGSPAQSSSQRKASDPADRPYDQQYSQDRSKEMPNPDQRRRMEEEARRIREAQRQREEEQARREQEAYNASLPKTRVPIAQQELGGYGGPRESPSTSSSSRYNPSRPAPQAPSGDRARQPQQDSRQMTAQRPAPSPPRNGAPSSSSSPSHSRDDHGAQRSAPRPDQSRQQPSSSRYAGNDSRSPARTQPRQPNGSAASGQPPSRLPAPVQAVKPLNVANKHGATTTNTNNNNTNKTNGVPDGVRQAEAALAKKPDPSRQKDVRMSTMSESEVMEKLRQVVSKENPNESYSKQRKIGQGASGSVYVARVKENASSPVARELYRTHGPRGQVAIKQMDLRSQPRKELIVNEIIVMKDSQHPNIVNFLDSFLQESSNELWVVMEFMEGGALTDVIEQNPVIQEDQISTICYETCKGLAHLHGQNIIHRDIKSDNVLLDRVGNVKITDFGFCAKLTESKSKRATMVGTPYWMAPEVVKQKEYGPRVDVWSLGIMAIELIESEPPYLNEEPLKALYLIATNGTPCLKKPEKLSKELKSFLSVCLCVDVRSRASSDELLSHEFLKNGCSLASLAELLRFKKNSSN

Compound | IC50 (TrCla4 [1]) [nM] | Kinase-Glo ATP consumption assay of immunoprecipitated 3xHA-TrCla4 with recombin (TrCla4 [2])
Oc1ccc2ccccc2c1SSc1c(O)ccc2ccccc12 [IPA-3] | 2300 | 
CCn1c(=O)c(-c2ccc(Cl)cc2Cl)cc2cnc(Nc3ccc(N4CCNCC4)c(F)c3)nc21 [FRAX486] |  | Both FRAX486 and IPA-3 inhibited the TrRac-dependent ATPase activity of 3xHA-TrCla4 (Fig. 5D).
